In the supplement of paper PMC13380429:

How the values were obtained:
Conditions in all cases: 72 h
HepG2 [1] = experiment: cell viability relative to DMSO; higher = less toxic
U2OS [2] = experiment: as above
Vero E6 [3] = experiment: as above
Caco-2 [4] = experiment: as above
Calu-3 [5] = experiment: as above
HepG2 [6] = experiment: drug sensitivity score (DSS) for viability; higher = more toxic; extreme values may be limits of the assay
U2OS [7] = experiment: as above
Vero E6 [8] = experiment: as above
Caco-2 [9] = experiment: as above
Calu-3 [10] = experiment: as above
HepG2 [11] = experiment: relative viability EC50 (midpoint between 100% and the lowest measured viability); higher = less toxic
U2OS [12] = experiment: as above
Vero E6 [13] = experiment: as above
Caco-2 [14] = experiment: as above
Calu-3 [15] = experiment: as above

| SMILES | cell viability (HepG2 [1]; 1 nM) [%] | cell viability (HepG2 [1]; 10 nM) [%] | cell viability (HepG2 [1]; 100 nM) [%] | cell viability (HepG2 [1]; 1000 nM) [%] | cell viability (HepG2 [1]; 10000 nM) [%] | cell viability (U2OS [2]; 1 nM) [%] | cell viability (U2OS [2]; 10 nM) [%] | cell viability (U2OS [2]; 100 nM) [%] | cell viability (U2OS [2]; 1000 nM) [%] | cell viability (U2OS [2]; 10000 nM) [%] | cell viability (Vero E6 [3]; 1 nM) [%] | cell viability (Vero E6 [3]; 10 nM) [%] | cell viability (Vero E6 [3]; 100 nM) [%] | cell viability (Vero E6 [3]; 1000 nM) [%] | cell viability (Vero E6 [3]; 10000 nM) [%] | cell viability (Caco-2 [4]; 1 nM) [%] | cell viability (Caco-2 [4]; 10 nM) [%] | cell viability (Caco-2 [4]; 100 nM) [%] | cell viability (Caco-2 [4]; 1000 nM) [%] | cell viability (Caco-2 [4]; 10000 nM) [%] | cell viability (Calu-3 [5]; 1 nM) [%] | cell viability (Calu-3 [5]; 10 nM) [%] | cell viability (Calu-3 [5]; 100 nM) [%] | cell viability (Calu-3 [5]; 1000 nM) [%] | cell viability (Calu-3 [5]; 10000 nM) [%] | drug sensitivity score (HepG2 [6]) | drug sensitivity score (U2OS [7]) | drug sensitivity score (Vero E6 [8]) | drug sensitivity score (Caco-2 [9]) | drug sensitivity score (Calu-3 [10]) | relative viability EC50 (HepG2 [11]) [nM] | relative viability EC50 (U2OS [12]) [nM] | relative viability EC50 (Vero E6 [13]) [nM] | relative viability EC50 (Caco-2 [14]) [nM] | relative viability EC50 (Calu-3 [15]) [nM] |
| --- | --- | --- | --- | --- | --- | --- | --- | --- | --- | --- | --- | --- | --- | --- | --- | --- | --- | --- | --- | --- | --- | --- | --- | --- | --- | --- | --- | --- | --- | --- | --- | --- | --- | --- | --- |
| C/N=C(/NC#N)NCCSCc1csc(NC(=N)N)n1 [tiotidine] | 96.4 | 105 | 98.3 | 108 | 113 | 105 | 96 | 97.9 | 98.6 | 106 | 91.5 | 96.6 | 96.6 | 92.8 | 108 | 102 | 94.4 | 104 | 104 | 110 | 99.5 | 97.2 | 91.7 | 101 | 104 | 0 | 0 | 0 | 0 | 0 | > 10000 | > 10000 | > 10000 | > 10000 | > 10000 |
| CCC(=O)N1CCN(c2ccc(-n3c(=O)ccc4cnc5ccc(-c6cnc7ccccc7c6)cc5c43)cc2C(F)(F)F)CC1 [torin-1] | 101 | 97.9 | 95 | 53.8 | 26.3 | 100 | 103 | 91.8 | 42.2 | 19 | 93.4 | 94.4 | 88.2 | 57.9 | 39.4 | 97.5 | 101 | 89.6 | 49.4 | 31.1 | 108 | 98.7 | 86.4 | 33.7 | 32.4 | 9.8 | 12 | 9.3 | 10.7 | 14.4 | 684 | 512 | 404 | 426 | 183 |
| Nc1ccc(-c2ccc3ncc4ccc(=O)n(-c5cccc(C(F)(F)F)c5)c4c3c2)cn1 [torin-2] | 91.2 | 81.6 | 41.2 | 16.3 | 3.4 | 92.5 | 90.8 | 26.6 | 11 | 0.5 | 94.6 | 77.1 | 48.6 | 36 | 11.5 | 89.4 | 69.1 | 32.7 | 21.7 | 17.8 | 86.3 | 62.6 | 30.2 | 22.2 | 18.5 | 24.5 | 27.3 | 21 | 26.6 | 28.1 | 59.4 | 48.1 | 73.8 | 16.9 | 11.1 |
| NCCCS(=O)(=O)O [tramiprosate] | 108 | 97.4 | 106 | 108 | 109 | 94.6 | 99.2 | 101 | 103 | 94.7 | 95.2 | 95.8 | 100 | 99.7 | 106 | 86.1 | 94.8 | 97.7 | 98.1 | 93 | 98.5 | 95.1 | 95 | 96.8 | 98.7 | 0 | 0 | 0 | 0 | 0 | > 10000 | > 10000 | > 10000 | > 10000 | > 10000 |
| OCC(Br)(Br)Br [tribromoethanol] | 99.3 | 102 | 102 | 97 | 85.4 | 95.3 | 98.3 | 96.7 | 98.8 | 101 | 106 | 96.3 | 108 | 87.7 | 99.9 | 81.4 | 116 | 92.7 | 98.8 | 107 | 91.4 | 95.9 | 98.3 | 106 | 94.2 | 0.5 | 0 | 0 | 0 | 0 | > 10000 | > 10000 | > 10000 | > 10000 | > 10000 |
